One block for each molecule: values may come before it.
Tests used:
[1] = tested on: bovine microtubule protein (tubulin plus MAP); experiment: In vitro ED50 MT polymerization study (DAPI fluorescence tubulin assay); format: biochemical; conditions: for ED50 Compound/ED50 Paclitaxel: ratio of tubulin polymerization ED50 to that of paclitaxel; for EC50: tubulin polymerization, 37° C., 30 minutes, maximum assembly = 25 μM paclitaxel
Experimental: In this tubulin binding assay, microtubule protein (MTP) is used as a substrate. The assay contains bovine tubulin plus microtubule associated proteins (MAP). MTP is polymerized into microtubules in the presence of DAPI (4′,6′-diamidino-2-phenylindole), a fluorescent compound. DAPI binds to tubulin; when microtubules are formed and there is an enhancement of fluorescence. The microtubule formation is measured as a function of time, using a fluorescence plate reader. […] The method used is based on the procedure published by Donna M. Barron, et al, “Fluorescence-based high-throughput assay for antimicrotuble drugs” Analytical Biochemistry, 315: 49-56, 2003, which is incorporated by reference in its entirety. The excitation wavelength, in that assay, was set at 370 nm and the emission wavelength was set at 450 nm for the DAN experiments.
A Bio-Tek FL 600 microplate Fluorescence used to measure the relative level of fluorescence in the DAPI assay.
Assays were conducted in 96-well plates. Each well contained a total volume of 0.1 mL consisting of PEM buffer (0.1 M Pipes, 1 mM EGTA, 1 mM MgCl2, pH 6.9), 0.2 mg bovine microtubule protein, and 10 μg of DAPI. […] The final DMSO concentration was 4%. The plates were incubated at 37° C. for 30 minutes and read in a fluorescence plate reader using an excitation wavelength of 360 nm and an emission wavelength of 460 nm. Fluorescence values were corrected for the sample without compound.
Experiments were done twice in triplicate. Results were subsequently combined and fit to a non-linear regression program.

[2] = tested on: Breast Cancer MCF-7 NCI-AR; experiment: Inhibition of cell growth, breast cancer MCF-7 NCI-AR (MDR+, wild type tubulin); format: cell-based; conditions: Homo sapiens
Description: (§1) Of note is the top part of the molecule illustrated above, which may be seen to have a 9-keto structure and 10-β hydroxy or 10-β acetoxy stereochemistry. The present application provides novel taxane analogs having a stereochemistry at the C-9 and C-10 OH positions of the molecule.

[3] = tested on: Ovarian Carcinoma 1A9PTX10; experiment: Inhibition of cell growth, ovarian carcinoma 1A9PTX10 (MDR-, mutant tubulin); format: cell-based; conditions: Homo sapiens, 1A9/ptx-10
Description: as §1

colon HT29 = experiment: MTS proliferation assay, HT29; format: cell-based; conditions: Homo sapiens, HT-29, 48 to 72 hrs
Experimental: (§2) Day 1: Cells were plated in appropriate growth medium at 5×10^3 per well in 100 ul in 96 well tissue culture plates, Falcon, one for each drug to be tested. Col 1 was blank; it contained no cells, just medium. The plates were incubated overnight at 37° C., 5% CO2 to allow attachment,
(§3) Day 2: Added 120 ul growth medium in wells of 96-well “dilution plates” (one for each drug) and let sit in 37° C. incubator for about 1 hr.
(§4) Thawed DMSO drug stocks (usually at 10 mM). Each drug was diluted 6 ul into a tube with 3 ml growth medium, to 20 uM.
(§5) Aspirated medium from col 12 of a dilution plate; added 200-300 ul of 20 uM drug to wells of col 12. Made serial dilution down this 96-well plate: for a […] dilution pattern, moved 60 ul from col 12 to col 11, mixed 4-5 times (using 8 place multi-pipettor), moved 60 ul to col 10, etc. stopping at col 3.
(§6) Moved 100 ul of medium+drug from dilution plate to a cell plate, i.e. col 1 from drug plate (blank=no cells) to col 1 of cell plate, etc. up to col 12. Col 2 contained cells with no drug. Col 3 had the lowest concentration of drug (0.005 nM) and col 12 had the highest drug concentration (10 uM).
(§7) Day 4 or 5: Terminated the assay 48 to 72 hrs after drug addition. […] When the color turned dark in control wells (col 2), and was still light in col 12, the absorbance at 490 nm was read on a plate reader; the results were used to calculate IC50.

prostate PC-3 = experiment: MTS proliferation assay, PC-3; format: cell-based; conditions: prostate PC-3, MTS, 48 to 72 hrs
Experimental: as §2, §3, §4, §5, §6, §7

[4] = Biological evaluation of separated isomers of Formula 48 (activity comparison); conditions: separated diastereoisomer vs mixture
prostate DU145 = experiment: MTS proliferation assay, DU145; format: cell-based; conditions: Homo sapiens, DU-145, 48 to 72 hrs
Experimental: as §2, §3, §4, §5, §6, §7

uterine MESSA/Dox (MDR+) = experiment: MTS proliferation assay, MESSA/Dox (MDR+); format: cell-based; conditions: Homo sapiens, MES-SA, 48 to 72 hrs
Experimental: as §2, §3, §4, §5, §6, §7

uterine MESSA = experiment: MTS proliferation assay, MESSA; format: cell-based; conditions: Homo sapiens, MES-SA, 48 to 72 hrs
Experimental: as §2, §3, §4, §5, §6, §7

head/neck KBV (MDR+) = experiment: MTS proliferation assay, KBV (MDR+); format: cell-based; conditions: 48 to 72 hrs
Experimental: as §2, §3, §4, §5, §6, §7

head/neck FADU = experiment: MTS proliferation assay, FADU; format: cell-based; conditions: Homo sapiens, 48 to 72 hrs
Experimental: as §2, §3, §4, §5, §6, §7

Neuroblastoma SKNAS = experiment: MTS proliferation assay, SKNAS; format: cell-based; conditions: Homo sapiens, SK-N-AS, 48 to 72 hrs
Experimental: as §2, §3, §4, §5, §6, §7

head/neck KB = experiment: MTS proliferation assay, KB; format: cell-based; conditions: 48 to 72 hrs
Experimental: as §2, §3, §4, §5, §6, §7

breast MDA435s = experiment: MTS proliferation assay, MDA435s; format: cell-based; conditions: 48 to 72 hrs
Experimental: as §2, §3, §4, §5, §6, §7

[5] = tested on: Squamous Cell Carcinoma FADU; experiment: Inhibition of cell growth, squamous cell carcinoma FADU; format: cell-based; conditions: Homo sapiens, concentration 0.05 ug/mL
Description: as §1

Neuroblastoma SK-N-AS = experiment: Inhibition of cell growth, neuroblastoma SK-N-AS; format: cell-based; conditions: Homo sapiens, concentration 0.1 ug/mL
Description: as §1

EC50 [1]: 3180 ± 450 nM
Structure (SMILES): CC(=O)O[C@@]12CO[C@@H]1C[C@H](O)[C@@]1(C)C(=O)[C@H](O)C3=C(C)[C@@H](OC(=O)[C@H](O)[C@@H](NC(=O)OC(C)(C)C)c4ccccc4)C[C@@](O)([C@@H](OC(=O)c4ccccc4)[C@H]21)C3(C)C [Docetaxel]
ED50 Compound/ED50 Paclitaxel [1]: 1.07

Structure (SMILES): C/C(=C\c1csc(C)n1)[C@@H]1C[C@@H]2O[C@]2(C)CCC[C@H](C)[C@H](O)[C@@H](C)C(=O)C(C)(C)[C@@H](O)CC(=O)O1 [Epothilone B]
ED50 Compound/ED50 Paclitaxel [1]: 1.11
EC50 [1]: 3310 ± 510 nM

Structure (SMILES): C=CC1O[C@H]2C[C@H]3OC[C@@]3(OC(C)=O)[C@H]3[C@H](OC(=O)c4ccccc4)[C@]4(O)C[C@H](OC(=O)[C@H](O)[C@@H](NC(=O)c5ccccc5)c5ccccc5)C(C)=C([C@H](OC(C)=O)[C@H](O1)[C@]23C)C4(C)C (some centres unmarked) [Formula 45]
inhibition at 0.5 µg/mL ([2]; MCF7, concentration 0.5 ug/mL): 45%
inhibition at 1 µg/mL ([2]; MCF7, concentration 1.0 ug/mL): 65%
inhibition at 2 µg/mL ([2]; MCF7, concentration 2.0 ug/mL): 94%
inhibition at 0.25 µg/mL ([3]; 1A9PTX10, concentration 0.25 ug/mL): 93%
inhibition at 0.5 µg/mL ([3]; 1A9PTX10, concentration 0.5 ug/mL): 96%

IC50 (colon HT29): 0.006 nM
IC50 (prostate PC-3): 0.03 nM
EC50 [1]: 1580 ± 460 nM
IC50 (prostate DU145): 60 nM
IC50 (Neuroblastoma SKNAS): 11 nM
IC50 (head/neck KB): 9.4 nM
Structure (SMILES): C=C[C@H]1O[C@H]2C[C@H]3OC[C@@]3(OC(C)=O)[C@H]3[C@H](OC(=O)c4ccccc4)[C@]4(O)C[C@H](OC(=O)[C@H](O)[C@H](CC(C)C)NC(=O)OC(C)(C)C)C(C)=C([C@H](OC(C)=O)[C@H](O1)[C@]23C)C4(C)C [Formula S-31]
ED50 Compound/ED50 Paclitaxel [1]: 0.53
activity compared with the isomeric mixture (Formula 48) [4]: significantly more active than the isomeric mixture
IC50 (uterine MESSA/Dox (MDR+)): 44.8 nM
IC50 (uterine MESSA): 2.9 nM
IC50 (head/neck KBV (MDR+)): 553 nM
IC50 (head/neck FADU): 21 nM
IC50 (breast MDA435s): 10 nM

Structure (SMILES): CC(=O)O[C@H]1C(=O)[C@@]2(C)[C@H]([C@H](OC(=O)c3ccccc3)[C@]3(O)C[C@H](OC(=O)[C@H](O)[C@@H](NC(=O)c4ccccc4)c4ccccc4)C(C)=C1C3(C)C)[C@]1(OC(C)=O)CO[C@@H]1C[C@@H]2O [Paclitaxel, reference compound]
inhibition at 40 µg/mL ([2]; MCF7, concentration 40 ug/mL): 55%
inhibition at 0.05 µg/mL [5]: 47%
inhibition at 0.1 µg/mL (Neuroblastoma SK-N-AS): 54%
inhibition at 5 µg/mL ([3]; 1A9PTX10, concentration 5 ug/mL): 55%
